Where “and” joins values, the source holds several entries; their conditions need not be identical. Equal values may be shown once. Where a name gives a salt, the structure may show the parent alone.
Key:
Rhinovirus 2 (HGP) [1] = assay: Antiviral activity tube method (Rightsel procedure), liquid media, HeLa cells; format: cell-based; conditions: for Antiviral: concentration at which active, Day 4: 20 TCID50 (Example 7)
Excerpt: (§1) Compounds of the present invention show antiviral activity in concentrations of 50 to 100 γ/ml when tested in liquid media using the procedure of Rightsel (Univ. of Mich. Med. Bull. 24:222-234 (1958)) and on solid media using the Herrmann modification of the Dulbecco Technique (Proc. Nat. Acad. Sci., Wash. 38:747-752 (1952); Proc. Soc. Exp. Bio., N.Y., 103: 625-628 (1960)).
(§2) More particularly the protocol for the Rightsel procedure used is as follows:
(§3) ANTIVIRAL ACTIVITY TUBE METHOD
(§4) PURPOSE: The determination of toxicity and antiviral activity of
(§5) experimental compounds in normal and cancer cell lines
(§6) in vitro in tubes with liquid culture media.
(§7) MATERIALS: Cell Lines - cancer
(§8) HeLa - Human Carcinoma of the Cervix
(§9) Virus - Rhinovirus 2 (HGP)
Growth Medium - Basal Medium Eagle (BME) with Earle's
salts, containing 10 % fetal bovine serum,
penicillin (100 units/ml.) and
streptomycin (100 mcg./ml.)
Maintenance Medium - A 1:1 mixture of BME and Medium
199; contains 2 % fetal bovine serum.
Trypsin - (1-300) 0.25 % in Ca-free and Mg-free
Hanks' balanced salt solution (BSS)
Roller Bottles - Bellco
Tubes - Sterile 16 × 150 mm plastic screw top
(§10) Roller bottles are seeded with approximately 10^7 cells
(§11) in […] growth medium and rotated at 0.5 rpm on
(§12) the Bellco roller apparatus at 37° C until the cell
(§13) Trypsinization - Cells are resuspended in growth medium
(§14) at a concentration of […] HeLa cells/ml.
(§15) cell suspensions are gassed with CO2 to a pH of 6.8.
(§16) Sterile plastic tubes are seeded with 1.0 ml of cell
(§17) suspension and incubated in a stationary position for
(§18) two days (until cell sheet is confluent).
(§19) The compound is dissolved in distilled water at a maximum
(§20) concentration of 500 gamma/ml. Where necessary, NaOH,
(§21) HCl or ethanol is used to dissolve the material. The
(§22) pH of the final solution is adjusted as closely as
(§23) possible to pH 7.2. This stock solution is then
(§24) diluted with medium to contain appropriate concentrations
The virus is thawed rapidly at 37° C and diluted
in maintenance medium - to 10-^8 for titration and to an
estimated 10 - 100 Tissue Culture Infectious Dose50
PROCEDURE: The growth medium is decanted from the cell sheet in the
Adsorbed virus system: 0.1 ml of virus dilution is added
to each of the tubes and the tubes are rolled at 33°
(§25) for 1 hour. Cytotoxicity and control tubes are rolled
(§26) with just 0.1 ml of medium. After a 1 hour adsorption
period, 0.9 ml of the appropriate dilution of the test
compound is added to each of the tubes and the tubes
are returned to the roller apparatus.
Unadsorbed virus system: 0.1 ml of the diluted virus and
0.9 ml of the diluted test compound are added simultaneously
to a tube and the tubes rotated at 33° C.
(§27) RECORDING: HeLa cell cultures are read every day, starting on day 3
(§28) and readings are continued until culture controls have
(§29) shown a non-specific cytopathic effect (CPE) in about
(§30) 5-6 days. WI-38 cultures are read every other day,
starting with day 3, for 10-14 days.
(§31) on the degree and nature of the CPE. Viral CPE is
also recorded as 0 - 4+, depending on the percent of
(§32) the cell sheet showing virus growth. Four tubes are
(§33) used for each concentration of compound and for each
(§34) concentration of virus dilution, and the four CPE
(§35) ratings within each group are averaged.
To be considered active, a specific concentration of a test
compound must average 2 or more points below that of the
virus control. Actual TCID50 of virus used is
by method of Reed and Muench.

Rhinovirus 2 (HGP) [2] = assay: Antiviral Activity, Solid Media (Herrmann modification of the Dulbecco technique), plaque suppression by disc, HeLa cells; format: cell-based; conditions: Rhinovirus 2 HGP adsorbed, Day 5, 100 mcg disc, virus 66 PFU/ml (Example 4), 970 PFU/ml (Example 7)
Excerpt: as §1
(§36) The procedure for the Herrmann modification used is as follows:
(§37) TEST NAME: Antiviral Activity, Solid Media
(§38) PURPOSE: The determination of toxicity and antiviral activity
(§39) of experimental compounds in normal and cancer cell
(§40) lines as measured by plaque suppression in solid media.
(§41) MATERIALS: Cell Line - Cancer
(§42) HeLa - Human carcinoma of the cervix
as §9
Growth Medium - Basal Medium Eagle (BME) containing 10 %
fetal bovine serum, penicillin (100 units/ml)
and streptomycin (100 mcg/ml).
Trypsin - (1-300) 0.25 % trypsin in Ca-free and Mg-free
Hanks' balanced salt solution (BSS).
(1) Rhinovirus: A 1:1 mixture of BME and
Medium 199. Contains 2 % fetal bovine serum
(FBS); 30 mM MgCl2; 0.3 % Tris; 30 gamma/ml
diethylaminoethyl (DEAE) dextran and 1 %
Wash Fluid - Phosphate-buffered saline (PBS) containing
Discs - Sterile Schleicher and Schuell 1/4"
penicillin assay discs.
Plates - Falcon plastic 60 × 15 mm dishes. […]
(§43) measured across the entire diameter (including disc).
The number of plaques on titration plates are counted to […]

HeLa [3] = assay: Cytotoxicity, solid media (disc), zones of cytotoxicity; format: cell-based, Human; conditions: Day 5, 100 mcg disc
Excerpt: as §1, §36, §37, §38, §39, §40, §41, §42, §10
in 250-300 ml of growth medium and rotated at 0.5 rpm on
as §12
Cells are removed from the glass surface with trypsin.
The cells are resuspended in medium to a concentration
of 2.0 × 10^5 /ml. Falcon plastic 60 × 15 mm
seeded with 5.0 ml of cell suspension and incubated for
48 hours at 37° C in Pyrex baking dishes sealed with
Water-soluble compounds are prepared in distilled water
with the aid of HCl or NaOH as necessary. Solutions
are Millipore filtered. Water insoluble compounds are
Sterile Schleicher and Schuell 1/4" penicillin assay […]
as §43

HeLa [4] = assay: in vitro; format: cell-based, Human
Excerpt: as §1, §2, §3, §4, §5, §6, §7, §8, §10, §11, §12, §13, §14, §15, §16, §17, §18, §19, §20, §21, §22, §23, §24, §25, §26, §27, §28, §29, §30
(§44) Compound cytoxicity is recorded as 0 - 4+, depending
as §31, §32, §33, §34, §35

in vitro = format: cell-based, Human; conditions: human, hela cells
Excerpt: as §1, §2, §3, §4, §5, §6, §7, §8, §10, §11, §12, §13, §14, §15, §16, §17, §18, §19, §20, §21, §22, §23, §24, §25, §26, §27, §28, §29, §30, §44, §31, §32, §33, §34, §35

SMILES	Antiviral: concentration at which active, Day 4 (Rhinovirus 2 (HGP) [1]; Tube, HeLa, Rhinovirus 2 HGP nonadsorbed, virus 31 TCID50 (Example 13), 100 TCID50 (Example 4), active = averages 2 or more points below virus control, hydrochloride)	Antiviral: concentration at which inactive, Day 5 (Rhinovirus 2 (HGP) [1]; Tube, HeLa, Rhinovirus 2 HGP nonadsorbed, Day 5, virus 31 TCID50 (Example 13), 100 TCID50 (Example 4))	Antiviral, disc (Rhinovirus 2 (HGP) [2]; hydrochloride)	Cytotoxicity, disc (HeLa [3])	Cytotoxicity: concentration at which toxic, Day 5 (HeLa [4])	toxic effect on the cells (HeLa [4])	MNTC at 96 h (in vitro)	Antiviral: concentration at which active, Day 4 (Rhinovirus 2 (HGP) [1]; Tube, HeLa, Rhinovirus 2 HGP nonadsorbed, virus 31 TCID50 (Example 13), 100 TCID50 (Example 4), active = averages 2 or more points below virus control)	Antiviral: concentration at which active, Day 5 (Rhinovirus 2 (HGP) [1]; Tube, HeLa, Rhinovirus 2 HGP nonadsorbed, Day 5, 20 TCID50, active = averages 2 or more points below virus control)	antiviral activity in the liquid system on 4th and 5th days (Rhinovirus 2 (HGP) [1]; liquid system, both the 4th and 5th days of incubation)	Antiviral, disc (Rhinovirus 2 (HGP) [2])	toxic effect of undetermined origin, day 5 (HeLa [4])	MCC at 120 h (in vitro)	antiviral activity after four days of incubation, liquid test (Rhinovirus 2 (HGP) [1]; liquid test, four days of incubation)
COc1ccc(C2CN(O)C3CCCCC23)cc1OC (stereo not shown) [Example 4, 3-(3,4-dimethoxyphenyl)hexahydro-1-hydroxyindoline hydrochloride]	100 µg/mL and 50 µg/mL	6.25 µg/mL	inactive	Nontoxic	100-12.5	undetermined toxic effect on the cells was observed	100 µg/mL							
COc1ccc(C2CN(O)C3(C)CCCCC23)cc1OC (stereo not shown) [Example 7, 3-(3,4-Dimethoxyphenyl)hexahydro-1-hydroxy-7a-methyl-indoline]				Nontoxic			100 µg/mL	100 µg/mL and 50 µg/mL	100 µg/mL and 50 µg/mL	showed activity at two concentrations	inactive	very slight toxic effect	100 µg/mL	
COc1ccccc1C1C[N+]([O-])=C2CCCCC21.Cl (stereo not shown) [Example 13, 3,3a,4,5,6,7-hexahydro-3-(o-methoxyphenyl)-2H-indole 1-oxide hydrochloride]					108-10.5	undetermined toxic effect on the cells was observed	108 µg/mL							showed antiviral activity

Source: US3989714A, “3-Phenylhydroindoles” (priority 1974, dated 1976)
